From US6110901A (priority 1992, dated 2000)
pIC50: −log10 of the molar value. Several values for one entry are separate records, joined by “and”; a condition that tells them apart may be missing. Identical values can stand only once. Like-named read-outs stand apart in the source and are kept apart here.

How the values were obtained:
[1] = target: influenza virus RNA polymerase (Influenza A virus, UniProt P03431); type: biochemical
[2] = target: VSV RNA polymerase (Vesicular stomatitis Indiana virus, UniProt P03523); type: biochemical, Vesicular stomatitus virus (VSV)
[3] = system: influenza virus (strain A/NWS); assay: microbe, parasite or virus in culture; type: cell-based; conditions: MDCK, 48 h, read-out: IC50 Value Flu A/NWS
[4] = system: MDCK cells; assay: cells; type: cell-based; conditions: Canis lupus familiaris, 48 h, read-out: IC50 Value Tox (beside Flu A/NWS)
[5] = system: HRV 14 (human rhinovirus 14); assay: HRV 14 growth in HeLa cells by MTT cell viability assay; type: cell-based; conditions: Rhinovirus B, MTT at 48 hours after infection
Protocol: (§1) Mammalian cell lines, MDCK CCL34 and HeLa cells CCL2 (both obtained under those accession numbers from ATCC culture) are plated in 96 well microtiter dishes at a density of 3.5×10^4 cells per well and infected with virus at low multiplicity followed by treatment with drug 24 hours after plating of cells; drug concentrations range from 0.025-12.5 mM. MDCK cells are infected with influenza virus (strain A/NWS) and HeLA cells are infected with HRV 14-14VR-284 (obtained from ATCC) (human rhinovirus 14) or CVB3 VR30 (coxsackie virus B3 strain Nancy obtained from ATCC); replicate uninfected cell cultures are treated with drug as toxicity control. At 48 hours after infection the extent of virus growth is determined by ELISA in the case of influenza virus or by the MTT (tetrazolium dye) cell viability assay in the cases of HRV 14 and CVB3. The influenza A (A/NWS)VR-129 (ATCC) virus ELISA assay utilizes a primary monoclonal antibody to the virus hemagglutinin protein and a secondary antibody conjugated to B-galactosidase. Cytotoxicity of drugs in uninfected cell cultures is determined by MTT cell viability assay at 48 hours after drug treatment

[6] = system: HeLa cells; assay: Cytotoxicity in uninfected HeLa cell cultures, MTT cell viability assay; type: cell-based; conditions: MTT at 48 hours
Protocol: as §1

[7] = system: CVB3 (coxsackie virus B3 strain Nancy); assay: CVB3 growth in HeLa cells by MTT cell viability assay; type: cell-based; conditions: Enterovirus B, MTT at 48 hours after infection
Protocol: as §1

[8] = system: influenza A virus (strain A/NWS); conditions: mouse, in vivo
[9] = Homo sapiens, read-out: IC50 Value Tox (beside CVB3)
[10] = Homo sapiens, read-out: IC50 Value Tox (beside HRV 14)
[11] = read-out: IC50 Value Tox (beside CVB3)

Row | SMILES | pIC50 [3] | pIC50 [4] | pIC50 [5] | pIC50 [6, 10] | further results
1 | O=c1ccn([C@@H]2O[C@H](COP(=O)(O)OP(=O)(O)OP(=O)(O)O)C[C@H]2O)c(=O)[nH]1 [3'-d UTP, 3'-deoxy UTP] |  |  |  |  | Activity against the influenza virus RNA polymerase [1]: moderately active; Effect on VSV RNA polymerase [2]: little or no effect
2 | O=c1ccn([C@@H]2O[C@H](CO)C[C@H]2O)c(=O)[nH]1 [3'-dU, 3'-deoxyribouracil] | 4.07 | 1.90 | 4.57 | 2.62 | pIC50 [6, 9]: 2.62; pIC50 [7]: 4.05; MST [8]: > 14 days and 10 days; Protection of animals in murine model of influenza A virus infection [8]: significant protection; Toxicity in mice [8]: appears to have toxicity
3 | Nc1ccn([C@@H]2O[C@H](CO)C[C@H]2O)c(=O)n1 [3'-dC, 3'-deoxyribocytosine] | 3.05 | 2.30 | 4.60 | 2.74 | pIC50 [6, 9]: 2.74; pIC50 [7]: 4.05; % ILS (increase in life span) [8]: 10% and 20%; % Survival (14 Days) [8]: 0% and 10%; Antiviral activity in murine model of influenza A virus infection [8]: minimal antiviral activity; MST [8]: 11 days and 12 days
4 | Nc1ncnc2c1ncn2[C@@H]1O[C@H](CO)C[C@H]1O [3'-dA, 3'-deoxyriboadenine] | 3.10 | 2.85 | 4.32 | 3.89 | 
5 | Nc1ccn([C@@H]2O[C@H](COP(=O)(O)OP(=O)(O)OP(=O)(O)O)C[C@H]2O)c(=O)n1 [3'-d CTP, 3'-deoxy-CTP] |  |  |  |  | Activity against the influenza virus RNA polymerase [1]: low to moderately inhibitory activity; % Inhibition [2]: 0%; Effect on VSV RNA polymerase [2]: does not inhibit
6 | CO[C@H]1[C@@H](O)[C@H](n2cnc3c(N)ncnc32)O[C@@H]1CO [3'-OMeA] |  | < 1.30 |  | < 1.30 | 
7 | Nc1nc2c(ncn2[C@@H]2O[C@H](COP(=O)(O)OP(=O)(O)OP(=O)(O)O)C[C@H]2O)c(=O)[nH]1 [3'-d GTP, 3'-deoxy-GTP] |  |  |  |  | % Inhibition [1]: 55%; Activity against the influenza virus RNA polymerase [1]: fairly good inhibitor; % Inhibition [2]: 13% and 7%; Effect on VSV RNA polymerase [2]: only weakly inhibitory
8 | [N-]=[N+]=N[C@H]1C[C@H](n2ccc(=O)[nH]c2=O)O[C@@H]1CO [3'-AzdU] |  |  |  |  | pIC50 [6, 11]: < 1.90
9 | CO[C@H]1[C@@H](O)[C@H](n2cnc3c(=O)[nH]c(N)nc32)O[C@@H]1CO [3'-OMeG] |  | < 1.30 |  | < 1.30 | 
10 | Nc1nc2c(ncn2[C@@H]2O[C@H](CO)C[C@H]2O)c(=O)[nH]1 [3'-dG, 3'-deoxyriboguanine] | 3.57 | 2.68 | 3.55 | 2.47 | 
11 | CO[C@H]1[C@@H](O)[C@H](n2ccc(N)nc2=O)O[C@@H]1CO [3'-OMeC] |  | < 1.30 |  | < 1.30 | 
12 | [N-]=[N+]=N[C@H]1C[C@H](n2ccc(N)nc2=O)O[C@@H]1CO [3'-AzdC] |  |  |  |  | pIC50 [6, 11]: < 1.90
13 | CO[C@H]1[C@@H](O)[C@H](n2ccc(=O)[nH]c2=O)O[C@@H]1CO [3'-OMeU] |  | < 1.30 |  | < 1.30 | 
